From patent publication US20200247815A1, “PYRAZOLYL-CONTAINING TRICYCLIC DERIVATIVE, PREPARATION METHOD THEREFOR AND USE THEREOF” (Jiangsu Hansoh Pharmaceutical Group Co., Ltd., priority 2017, published 2020) come the findings set out here.

One test deals with T1, ERK-1 kinase (Homo sapiens, UniProt P27361).
T1 construct: purchased Invitrogen PV3311
The test is described as follows: Inhibition of ERK-1 kinase activity (LANCE Ultra TR-FRET). The format is biochemical. The conditions noted are these: ERK1 enzyme 0.4 nM, ATP 38.15 μM. In outline: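 Reactions contained 0.4 nM ERK1, 0.5 μM Ulight-MBP peptide and 38.15 μM ATP in pH 7.4 Hepes/MgCl2 buffer with 4% DMSO and ran 60 minutes at room temperature. Detection used Eu-anti-p-MBP with a 665/615 nm TR-FRET ratio, normalised to DMSO and no-enzyme controls. Final concentrations were 100 nM to 0.005 nM, and IC50 came from a 4-parameter fit.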

Test [1] deals with human pancreatic cancer cell MiaPaca 2 xenograft (CDX) model. The test is described as follows: Tumor inhibition experiment in MiaPaca 2 xenograft model. The format is in vivo, BALB/c nude mice. The method, then:
BALB/c nude mice were used as test animals. In vivo pharmacodynamic test was carried out in human pancreatic cancer cell MiaPaca 2 xenograft (CDX) model to evaluate the antitumor effect of the test compound.
MiaPaca 2 cells were obtained from the cell bank. After recovery, the cells were added to a DMEM medium (containing 10% FBS, 1% Glu and 1% P/S), and incubated in the CO2 incubator (the incubator temperature was 37° C., and the CO2 concentration was 5%). The cells were subjected to passage after spreading 80-90% of the bottom of the culture flask. After passage, the cells were incubated in the CO2 incubator. This process was repeated until the number of cells met the required by in vivo pharmacological inoculation. Cells in log phase were collected, and counted by the automatic cell counter. The cells were re-suspended with PBS and Matrigel (1:1 by volume) based on the counting results to obtain a cell suspension (cell density: […]), which was placed in an ice box.
Female BALB/c nude mice (6-8 weeks old, body weight: 18-22 grams) were used as test animals. The mice were maintained in individually ventilated cages (5 mice per cage) in a special pathogen-free environment. All cages, padding and water were disinfected before use. All animals had free access to standard certified commercial laboratory diets. The nude mice were labeled with disposable ear tags before the experiment. The skin of the inoculated area was sterilized with 75% medical alcohol before inoculation. Each mouse was subcutaneously inoculated with 0.1 ml (containing 8*10^6 cells) of MiaPaca 2 tumor cells on the right back. Administration was started when the average tumor volume reached 100-200 mm^3. The test compound was administrated intragastrically daily. The tumor volume (mm^3) was measured with vernier caliper twice a week. Calculation formula: V=0.5*D*d*d, wherein D and d refer to the major and minor diameter of the tumor, respectively. The anti-tumor efficacy was determined by dividing the average tumor increase volume of compound-treated animals by the average tumor increase volume of untreated animals. Calculation formula of tumor inhibition rate: TGI (%)=1−[(Vt−V0)administration group/(Vt−V0)solvent control group]*100%. All animals were euthanized after the experiment.

The test system of test [2] is pancreatic cancer tumor cell Mia Paca 2. The test is described as follows: Inhibition of tumor cell proliferation (CellTiter-Glo). Type of test: cell-based. The conditions noted are these: Homo sapiens, Miapaca-2 cell, 3-7 days. Here is the method: The object of this test example is to determine the inhibition effect of the present compound on tumor cell proliferation activity. The inhibition activity of the compound on tumor cell proliferation was determined by CellTiter-Glo method, and the half inhibitory concentration IC50 of the compound for inhibiting cell proliferation activity was obtained, 50-100 μL of tumor cell suspension was inoculated in a 96-well cell culture plate with a density of 1˜5*10^4 cells/ml. The plate was incubated in an incubator for 16˜24 hours (37° C., 5% CO2). Solutions of test compounds at different concentrations obtained by gradient dilution were added to the cells in the plate. The plate was incubated in an incubator for 3-7 days (37° C., 5% CO2), 50˜100 μL of CellTiter-Glo reagent was added to each well. The plate was shaked for 10 minutes, and left to stand at room temperature for 10 minutes. The value of the chemiluminescence signal was determined by a microplate reader. The inhibition rate was calculated from the value of the chemiluminescence signal. IC50 of the compound was obtained by curve fitting based on the inhibition rate at different concentrations.
The inhibition effect of the present compound on pancreatic cancer tumor cell Mia Paca 2 proliferation activity was determined by the test, and the obtained IC50 value is shown in Table 2.

Setting [3] is: 50 mg/kg QD × 16 d, intragastric, Day 16.
The mark [4] stands for this setting: 50 mg/kg BID × 3 w, intragastric.
Where [5] appears, read: 100 mg/kg QD × 3 w, intragastric.

T1 sequence (P27361 whole entry): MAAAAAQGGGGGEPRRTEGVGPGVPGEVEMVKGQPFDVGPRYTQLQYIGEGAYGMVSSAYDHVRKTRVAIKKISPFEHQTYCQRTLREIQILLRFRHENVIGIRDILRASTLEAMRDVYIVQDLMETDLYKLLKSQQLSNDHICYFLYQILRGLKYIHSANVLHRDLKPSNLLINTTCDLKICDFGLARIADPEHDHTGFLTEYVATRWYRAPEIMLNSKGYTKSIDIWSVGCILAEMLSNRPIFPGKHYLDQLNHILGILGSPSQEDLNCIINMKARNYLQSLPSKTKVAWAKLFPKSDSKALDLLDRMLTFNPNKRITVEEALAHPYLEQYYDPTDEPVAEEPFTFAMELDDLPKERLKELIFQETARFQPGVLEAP

For the compound `C[C@@H](NC(=O)c1cc2cc3c(-c4ccncc4)n[nH]c3cc2[nH]1)c1ccccc1` [Example 1, (R)—N-(1-phenylethyl)-3-(pyridin-4-yl)-1,7-dihydropyrrolo[3,2-f]indazole-6-carboxamide], the IC50 at ERK-1 kinase worked out at 0.29 nM. The “Tumor volume (Mean ± SD) Day 0” value in test [1] (50 mg/kg QD × 16 d, intragastric) is 154 ± 29 mm^3. In test [1] (setting [3]), the “TGI Day 16” value amounted to 86.63%, the “Tumor volume (Mean ± SD) Day 16” value turned out to be 214 ± 97 mm^3 and the “ΔT/ΔC Day 16” value came to 13.37%. Further, the “Inhibition of growth of xenograft” value in test [1] (50 mg/kg QD, continuous oral administration for 16 days) is listed as “significantly inhibit the growth”. Besides, 123 nM corresponded to half-maximal inhibition in test [2] (IC50).
Take `C[C@@H](NC(=O)c1nc2cc3c(-c4ccncc4)n[nH]c3cc2[nH]1)c1ccccc1` [Example 2, (R)—N-(1-phenylethyl)-3-(pyridin-4-yl)-1,7-dihydroimidazo[4,5-f]indazole-6-carboxamide]: at ERK-1 kinase, the IC50 was 0.42 nM. Further, in test [1] (setting [4]), the “Tumor volume (Mean ± SD) Day 0” value is 156 ± 27 mm^3, the “TGI Day 21” value is reported as 85.07%, the “Tumor volume (Mean ± SD) Day 21” value is recorded as 253 ± 32 mm^3 and the “ΔT/ΔC Day 21” value turned out to be 14.93%. Further, in test [1] (50 mg/kg BID, continuous oral administration for 21 days), the “Inhibition of growth of xenograft” value is recorded as “significantly inhibit the growth”. Also, in test [1] (setting [5]), the “Tumor volume (Mean ± SD) Day 0” value came out at 156 ± 24 mm^3, the “TGI Day 21” value is given as 91.14%, the “Tumor volume (Mean ± SD) Day 21” value is reported as 214 ± 104 mm^3 and the “ΔT/ΔC Day 21” value turned out to be 8.86%. In addition, in test [1] (100 mg/kg QD, continuous oral administration for 21 days), the “Inhibition of growth of xenograft” value was “significantly inhibit the growth”. In test [2], it took 69.1 nM to reach half-maximal inhibition (IC50).
